# Test results: ChEMBL document CHEMBL1133276, “Effect of C2-exo unsaturation on the cytotoxicity and DNA-binding reactivity of pyrrolo[2,1-c][1,4]benzodiazepines” (2000)
# Columns and labels:
# [1] = Resistance factor of compound was determined from cisplatin resistant A2780 cell lines to that of A2780 cell lines; type: functional
# Nucleic Acid [2] = experiment: Change in thermal denaturation temperature determined from calf thymus DNA after incubation at 37 degree celsius for 18 hours; type: functional; settings: Bos taurus
# CH1 [3] = experiment: In vitro cytotoxicity of compound was determined against CH1 (cisplatin resistant) cell lines at 37 degree C for 96 hr; type: functional, Homo sapiens
# Nucleic Acid [4] = experiment: Change in thermal denaturation temperature determined from calf thymus DNA after incubation at 37 degree celsius for 0 hours; type: functional; settings: Bos taurus
# Nucleic Acid [5] = experiment: Change in thermal denaturation temperature determined from calf thymus DNA after incubation at 37 degree celsius for 4 hours; type: functional; settings: Bos taurus
# SK-OV-3 = experiment: In vitro cytotoxicity of compound was determined against SKOV-3 cell lines at 37 degree C for 96 hr; type: functional, Homo sapiens
# CH1 [6] = experiment: In vitro cytotoxicity of compound was determined against CH1 cell lines at 37 degree C for 96 hr; type: functional, Homo sapiens
# A2780 [7] = experiment: In vitro cytotoxicity of compound was determined against A2780 cell lines (cisplatin resistant) at 37 degree C for 96 hr; type: functional, Homo sapiens
# [8] = Resistance factor of compound was determined from cisplatin resistant CH1 cell lines to that of CH1 cell lines; type: functional
# A2780 [9] = experiment: In vitro cytotoxicity of compound was determined against A2780 cell lines at 37 degree C for 96 hr; type: functional, Homo sapiens
Structure (SMILES),Resistance factor [1],ΔTm (Nucleic Acid [2]) [°C],Cytotoxicity (CH1 [3]) [µM],ΔTm (Nucleic Acid [4]) [°C],ΔTm (Nucleic Acid [5]) [°C],Cytotoxicity (SK-OV-3) [µM],Cytotoxicity (CH1 [6]) [µM],Cytotoxicity (A2780 [7]) [µM],Resistance factor [8],Cytotoxicity (A2780 [9]) [µM]
COc1cc2c(cc1OC)C(=O)N1CCC[C@H]1C=N2,2.4,0.57,0.11,0.24,0.43,1.7,0.082,0.155,1.3,0.064
C=C1C[C@H]2C=Nc3cc(OC)c(OC)cc3C(=O)N2C1,2.4,2.38,0.084,1.46,1.95,0.39,0.066,0.36,1.3,0.15
C/C=C1/C[C@H]2C=Nc3cc(OCc4ccccc4)c(OC)cc3C(=O)N2C1,1.9,2.34,0.031,0.92,1.65,0.081,0.031,0.066,1,0.034
C=C1C[C@H]2C=Nc3cc(OCc4ccccc4)c(OC)cc3C(=O)N2C1,6.9,1.33,0.082,1.01,1.22,0.35,0.017,0.2,4.8,0.029
C/C=C1/C[C@H]2C=Nc3cc(O)c(OC)cc3C(=O)N2C1,,,,,,,0.00013,,,
C/C=C1/C[C@H]2C=Nc3cc(OC)c(OC)cc3C(=O)N2C1,1.9,1.86,0.056,0.84,1.47,0.135,0.035,0.14,1.6,0.071
COc1cc2c(cc1OCc1ccccc1)N=C[C@@H]1CCCN1C2=O,2.8,0.4,0.145,0.2,0.4,0.46,0.145,0.48,1,0.17
